From publication PMC10364322, “Evaluation of chronic drug-induced electrophysiological and cytotoxic effects using human-induced pluripotent stem cell-derived cardiomyocytes (hiPSC-CMs)” (Frontiers in Pharmacology, 2023)
Like-named read-outs stand apart in the source and are kept apart here.

Test system: hiPSC-CMs (iCell-Cardiomyocytes^2)
Outline: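 Monolayers of hiPSC-CMs on fibronectin-coated MEA plates, 50 K/well, kept at 37°C, 5% CO2; compounds added in 0.1% final DMSO after 5-min baseline. Field potential and impedance parameters expressed as mean ± SD percent change from baseline; arrhythmic events noted; cytotoxicity fluorescence normalized to DMSO, Kruskal-Wallis.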

SMILES: CCN(CC)CCNC(=O)c1c(C)[nH]c(/C=C2\C(=O)Nc3ccc(F)cc32)c1C [Sunitinib]
- BR (beating rate), % change from baseline (0.03 µM, 2h): 0±2%
- FPD (field-potential duration), % change from baseline (0.03 µM, 2h): 5.5±1.5%
- FPDc (field-potential duration corrected by beat-rate), % change from baseline (0.03 µM, 2h): 5.3±1.7%
- BR (beating rate), % change from baseline (0.03 µM, 24h): -2±3%
- FPD (field-potential duration), % change from baseline (0.03 µM, 24h): 11±4.2%
- FPDc (field-potential duration corrected by beat-rate), % change from baseline (0.03 µM, 24h): 10.1±3.1%
- BR (beating rate), % change from baseline (0.03 µM, 48h): -13±2%
- FPD (field-potential duration), % change from baseline (0.03 µM, 48h): 20.5±2.7%
- FPDc (field-potential duration corrected by beat-rate), % change from baseline (0.03 µM, 48h): 14.9±1.9 %
- BR (beating rate), % change from baseline (0.03 µM, 72h): -10±2%
- FPD (field-potential duration), % change from baseline (0.03 µM, 72h): 19.2±2%
- FPDc (field-potential duration corrected by beat-rate), % change from baseline (0.03 µM, 72h): 15±1.8%
- BR (beating rate), % change from baseline (0.03 µM, 96h): -18±1%
- FPD (field-potential duration), % change from baseline (0.03 µM, 96h): 27.4±1.8%
- FPDc (field-potential duration corrected by beat-rate), % change from baseline (0.03 µM, 96h): 19.3±1.7%
- BR (beating rate), % change from baseline (0.1 µM, 2h): -5±1%
- FPD (field-potential duration), % change from baseline (0.1 µM, 2h): 12.2±1.2 %
- FPDc (field-potential duration corrected by beat-rate), % change from baseline (0.1 µM, 2h): 10.3±1 %
- BR (beating rate), % change from baseline (0.1 µM, 24h): -8±4%
- FPD (field-potential duration), % change from baseline (0.1 µM, 24h): 25.6±6.7 %
- FPDc (field-potential duration corrected by beat-rate), % change from baseline (0.1 µM, 24h): 21.9±5 %
- BR (beating rate), % change from baseline (0.1 µM, 48h): -19±2 %
- FPD (field-potential duration), % change from baseline (0.1 µM, 48h): 35.8±4.6 %
- FPDc (field-potential duration corrected by beat-rate), % change from baseline (0.1 µM, 48h): 26.3±3.6 %
- BR (beating rate), % change from baseline (0.1 µM, 72h): -17±2 %
- FPD (field-potential duration), % change from baseline (0.1 µM, 72h): 36.3±3.3 %
- FPDc (field-potential duration corrected by beat-rate), % change from baseline (0.1 µM, 72h): 28.2±2.6 %
- BR (beating rate), % change from baseline (0.1 µM, 96h): -24±1%
- FPD (field-potential duration), % change from baseline (0.1 µM, 96h): 49±7.7 %
- FPDc (field-potential duration corrected by beat-rate), % change from baseline (0.1 µM, 96h): 36.1±6.4 %
- time point from which EAD-like events occurred (0.3 µM): 24 h
- BR (beating rate), % change from baseline (0.3 µM, 2h): -15±2 %
- FPD (field-potential duration), % change from baseline (0.3 µM, 2h): 32.5±1.7 %
- FPDc (field-potential duration corrected by beat-rate), % change from baseline (0.3 µM, 2h): 25.4±1.4 %
- BR (beating rate), % change from baseline (0.3 µM, 24h): -29±5 %
- FPD (field-potential duration), % change from baseline (0.3 µM, 24h): 103.1±24.2 %
- FPDc (field-potential duration corrected by beat-rate), % change from baseline (0.3 µM, 24h): 80.7±18.4 %
- BR (beating rate), % change from baseline (0.3 µM, 48h): -39±4 %
- FPD (field-potential duration), % change from baseline (0.3 µM, 48h): 120.5±24.7 %
- FPDc (field-potential duration corrected by beat-rate), % change from baseline (0.3 µM, 48h): 87.2±17.5 %
- BR (beating rate), % change from baseline (0.3 µM, 72h): -38±1 %
- FPD (field-potential duration), % change from baseline (0.3 µM, 72h): 135.9±4.7 %
- FPDc (field-potential duration corrected by beat-rate), % change from baseline (0.3 µM, 72h): 101±3.5 %
- BR (beating rate), % change from baseline (0.3 µM, 96h): -44±2 %
- FPD (field-potential duration), % change from baseline (0.3 µM, 96h): 152.4±12.3 %
- FPDc (field-potential duration corrected by beat-rate), % change from baseline (0.3 µM, 96h): 108.1±8 %
- BR (beating rate), % change from baseline (1 µM, 2h): -49±4 %
- FPD (field-potential duration), % change from baseline (1 µM, 2h): 182.8±8.5 %
- FPDc (field-potential duration corrected by beat-rate), % change from baseline (1 µM, 2h): 128.9±4.9 %
- BR (beating rate), % change from baseline (1 µM, 24h): -67±3 %
- BR (beating rate), % change from baseline (1 µM, 48h): -68±4 %
- BR (beating rate), % change from baseline (1 µM, 72h): -70±0 %
